# Source: US6608086B2, “Dihydropyridines and new uses thereof” (Synaptic Pharmaceutical Corporation, priority 1993, dated 2003)
# pKi: −log10 of the molar value. Read-outs that look alike come from different tables or passages of the source.
# Experiments:
# [1] = biological target: T1, α1C Human Adrenergic Receptor (Homo sapiens, UniProt P35348); experiment: Radioligand binding, [3H]prazosin, cloned human α1C adrenergic receptor; conditions: LM(tk-) cell membranes, read-out: PKi alpha-1 1c (converted)
# T1 construct: The entire coding region of α1C (1401 bp); expressed in transfected cells
# T1 sequence (P35348 1-466): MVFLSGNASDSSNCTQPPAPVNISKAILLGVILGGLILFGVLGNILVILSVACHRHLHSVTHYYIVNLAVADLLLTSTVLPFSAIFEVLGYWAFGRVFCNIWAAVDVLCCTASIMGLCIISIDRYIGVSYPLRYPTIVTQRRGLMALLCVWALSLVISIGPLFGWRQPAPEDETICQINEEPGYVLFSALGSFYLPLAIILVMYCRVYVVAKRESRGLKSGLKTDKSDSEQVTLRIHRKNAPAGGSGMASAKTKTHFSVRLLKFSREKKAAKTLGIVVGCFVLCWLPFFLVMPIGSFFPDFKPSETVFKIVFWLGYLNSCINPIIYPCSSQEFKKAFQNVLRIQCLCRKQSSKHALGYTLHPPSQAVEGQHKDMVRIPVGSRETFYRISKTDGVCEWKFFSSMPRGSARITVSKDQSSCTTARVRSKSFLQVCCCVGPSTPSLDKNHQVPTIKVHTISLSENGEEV
# In short: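 Stably transfected mouse LM(tk−) fibroblast membranes bearing the cloned human α1C adrenoceptor served as receptor source. Specific binding was taken as the portion of 0.5 nM [3H]prazosin displaceable by 10 μM phentolamine after 20 min at 37° C., pH 7.5, in Mg2+/ascorbate-containing Tris buffer.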
# α2A receptor = biological target: T2, α2A receptor (Homo sapiens, UniProt P08913); experiment: Competition binding, [3H]rauwolscine, human α2A receptor; conditions: for Ki: [3H]rauwolscine, read-out: PKi alpha-2 2a (converted)
# T2 construct: host or cells: LM(tk-) cells, line L-α2A
# T2 sequence (P08913 1-465): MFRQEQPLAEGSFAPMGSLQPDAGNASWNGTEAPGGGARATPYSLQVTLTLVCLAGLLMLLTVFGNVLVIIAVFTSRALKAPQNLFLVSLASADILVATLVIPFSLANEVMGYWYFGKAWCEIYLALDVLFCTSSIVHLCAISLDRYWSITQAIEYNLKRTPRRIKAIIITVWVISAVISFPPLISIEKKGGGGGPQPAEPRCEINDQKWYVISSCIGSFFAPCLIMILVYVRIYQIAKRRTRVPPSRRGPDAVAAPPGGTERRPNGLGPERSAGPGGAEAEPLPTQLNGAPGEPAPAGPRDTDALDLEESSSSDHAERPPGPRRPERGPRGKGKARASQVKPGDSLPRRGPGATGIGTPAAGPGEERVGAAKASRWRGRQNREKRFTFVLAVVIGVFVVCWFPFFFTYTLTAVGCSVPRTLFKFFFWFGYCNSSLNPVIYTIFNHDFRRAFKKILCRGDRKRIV
# In short: (§1)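 Cell lysates from stably transfected LM(tk−) lines are resuspended in 25 mM glycylglycine (pH 7.6 at room temperature), incubated to equilibrium with 0.5 nM [3H]rauwolscine plus competitor, then filtered through GF/B filters; 10 μM phentolamine defines nonspecific binding.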
# α2C receptor = biological target: T3, α2C receptor (Homo sapiens, UniProt P18825); experiment: Competition binding, [3H]rauwolscine, human α2C receptor; conditions: for Ki: [3H]rauwolscine, read-out: PKi alpha-2 2c (converted); for pKi: PKi alpha-2 2c
# T3 construct: host or cells: LM(tk-) cells, line L-α2C
# T3 sequence (P18825 1-462): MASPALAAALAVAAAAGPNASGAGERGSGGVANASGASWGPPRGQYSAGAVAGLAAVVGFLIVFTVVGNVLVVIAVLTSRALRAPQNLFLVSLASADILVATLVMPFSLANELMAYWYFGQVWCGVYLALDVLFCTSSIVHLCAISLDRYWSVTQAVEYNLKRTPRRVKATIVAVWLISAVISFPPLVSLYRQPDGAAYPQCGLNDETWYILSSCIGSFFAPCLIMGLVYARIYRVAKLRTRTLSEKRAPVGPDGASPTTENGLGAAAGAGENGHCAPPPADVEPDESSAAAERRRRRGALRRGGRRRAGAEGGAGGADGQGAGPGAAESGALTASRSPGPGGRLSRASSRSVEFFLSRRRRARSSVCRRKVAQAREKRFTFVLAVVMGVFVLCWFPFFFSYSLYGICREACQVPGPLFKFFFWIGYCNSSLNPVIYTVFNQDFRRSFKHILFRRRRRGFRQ
# In short: as §1
# L-type calcium channel = biological target: T4, L-type calcium channel (Rattus norvegicus, UniProt P22002); experiment: Competition binding of [3H]nitrendipine to membrane fragments of rat cardiac muscle; conditions: for Ki: [3H]nitrendipine, rat cardiac muscle membranes, read-out: PKi Ca (converted); for pKi: PKi Ca
# T4 construct: membrane fragments of rat cardiac muscle; from tissue; host or cells: rat cardiac muscle membranes
# T4 sequence (P22002 whole entry, other chains not shown, the tested form may be a part): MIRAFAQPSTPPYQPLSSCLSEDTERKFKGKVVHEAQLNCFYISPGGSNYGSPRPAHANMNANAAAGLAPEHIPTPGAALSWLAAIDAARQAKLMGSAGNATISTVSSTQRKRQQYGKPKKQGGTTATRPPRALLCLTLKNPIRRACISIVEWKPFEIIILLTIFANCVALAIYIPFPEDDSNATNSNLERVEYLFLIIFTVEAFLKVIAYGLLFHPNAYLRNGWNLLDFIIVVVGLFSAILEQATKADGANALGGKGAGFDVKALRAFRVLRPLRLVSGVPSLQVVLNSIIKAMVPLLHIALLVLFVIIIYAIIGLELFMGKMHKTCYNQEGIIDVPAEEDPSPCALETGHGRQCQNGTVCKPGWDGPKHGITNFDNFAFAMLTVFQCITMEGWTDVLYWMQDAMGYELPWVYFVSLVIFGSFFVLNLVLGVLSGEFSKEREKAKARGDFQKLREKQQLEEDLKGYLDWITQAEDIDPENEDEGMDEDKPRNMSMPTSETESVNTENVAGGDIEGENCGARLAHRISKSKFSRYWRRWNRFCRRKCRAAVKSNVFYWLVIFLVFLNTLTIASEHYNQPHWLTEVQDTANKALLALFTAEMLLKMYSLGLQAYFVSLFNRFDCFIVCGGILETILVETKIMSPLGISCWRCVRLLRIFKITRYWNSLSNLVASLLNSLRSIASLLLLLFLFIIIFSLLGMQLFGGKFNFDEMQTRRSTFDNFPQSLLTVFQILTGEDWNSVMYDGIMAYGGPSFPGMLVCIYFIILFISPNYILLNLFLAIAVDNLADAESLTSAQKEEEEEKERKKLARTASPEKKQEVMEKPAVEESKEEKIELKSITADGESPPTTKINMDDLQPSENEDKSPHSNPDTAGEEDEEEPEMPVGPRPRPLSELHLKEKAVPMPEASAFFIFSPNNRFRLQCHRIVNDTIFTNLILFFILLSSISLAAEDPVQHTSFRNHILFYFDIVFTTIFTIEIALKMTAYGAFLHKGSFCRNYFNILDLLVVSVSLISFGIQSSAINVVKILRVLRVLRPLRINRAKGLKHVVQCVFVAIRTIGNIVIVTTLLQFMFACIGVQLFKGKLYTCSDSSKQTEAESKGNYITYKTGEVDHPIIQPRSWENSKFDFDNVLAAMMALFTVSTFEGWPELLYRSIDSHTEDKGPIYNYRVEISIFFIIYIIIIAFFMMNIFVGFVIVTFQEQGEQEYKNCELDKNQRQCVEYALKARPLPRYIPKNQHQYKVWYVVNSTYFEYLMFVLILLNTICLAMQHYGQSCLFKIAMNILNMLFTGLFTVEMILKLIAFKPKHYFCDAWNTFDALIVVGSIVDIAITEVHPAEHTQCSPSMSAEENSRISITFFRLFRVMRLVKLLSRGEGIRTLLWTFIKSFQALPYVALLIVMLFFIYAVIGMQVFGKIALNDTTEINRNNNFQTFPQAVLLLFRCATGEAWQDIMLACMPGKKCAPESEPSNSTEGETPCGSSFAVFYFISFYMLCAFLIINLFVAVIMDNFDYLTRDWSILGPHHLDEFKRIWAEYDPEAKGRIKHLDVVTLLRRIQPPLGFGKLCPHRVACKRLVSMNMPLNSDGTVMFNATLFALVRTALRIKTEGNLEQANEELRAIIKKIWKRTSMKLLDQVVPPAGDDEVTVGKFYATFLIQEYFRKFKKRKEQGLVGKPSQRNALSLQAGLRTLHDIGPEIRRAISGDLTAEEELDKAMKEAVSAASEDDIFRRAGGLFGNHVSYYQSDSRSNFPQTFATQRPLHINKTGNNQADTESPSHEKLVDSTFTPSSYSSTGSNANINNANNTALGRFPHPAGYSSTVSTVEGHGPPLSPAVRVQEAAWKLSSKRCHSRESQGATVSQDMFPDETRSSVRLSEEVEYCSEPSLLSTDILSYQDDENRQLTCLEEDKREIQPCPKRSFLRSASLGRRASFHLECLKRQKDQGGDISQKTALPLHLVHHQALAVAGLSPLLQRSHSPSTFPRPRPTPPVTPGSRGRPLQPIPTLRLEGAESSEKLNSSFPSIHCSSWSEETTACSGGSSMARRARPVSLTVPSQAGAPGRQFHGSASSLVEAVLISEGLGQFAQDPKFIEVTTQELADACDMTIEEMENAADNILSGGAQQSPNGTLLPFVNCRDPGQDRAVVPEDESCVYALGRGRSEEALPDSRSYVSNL
# T4 sequence (P54290 25-944 partner limits assumed, other chains not shown): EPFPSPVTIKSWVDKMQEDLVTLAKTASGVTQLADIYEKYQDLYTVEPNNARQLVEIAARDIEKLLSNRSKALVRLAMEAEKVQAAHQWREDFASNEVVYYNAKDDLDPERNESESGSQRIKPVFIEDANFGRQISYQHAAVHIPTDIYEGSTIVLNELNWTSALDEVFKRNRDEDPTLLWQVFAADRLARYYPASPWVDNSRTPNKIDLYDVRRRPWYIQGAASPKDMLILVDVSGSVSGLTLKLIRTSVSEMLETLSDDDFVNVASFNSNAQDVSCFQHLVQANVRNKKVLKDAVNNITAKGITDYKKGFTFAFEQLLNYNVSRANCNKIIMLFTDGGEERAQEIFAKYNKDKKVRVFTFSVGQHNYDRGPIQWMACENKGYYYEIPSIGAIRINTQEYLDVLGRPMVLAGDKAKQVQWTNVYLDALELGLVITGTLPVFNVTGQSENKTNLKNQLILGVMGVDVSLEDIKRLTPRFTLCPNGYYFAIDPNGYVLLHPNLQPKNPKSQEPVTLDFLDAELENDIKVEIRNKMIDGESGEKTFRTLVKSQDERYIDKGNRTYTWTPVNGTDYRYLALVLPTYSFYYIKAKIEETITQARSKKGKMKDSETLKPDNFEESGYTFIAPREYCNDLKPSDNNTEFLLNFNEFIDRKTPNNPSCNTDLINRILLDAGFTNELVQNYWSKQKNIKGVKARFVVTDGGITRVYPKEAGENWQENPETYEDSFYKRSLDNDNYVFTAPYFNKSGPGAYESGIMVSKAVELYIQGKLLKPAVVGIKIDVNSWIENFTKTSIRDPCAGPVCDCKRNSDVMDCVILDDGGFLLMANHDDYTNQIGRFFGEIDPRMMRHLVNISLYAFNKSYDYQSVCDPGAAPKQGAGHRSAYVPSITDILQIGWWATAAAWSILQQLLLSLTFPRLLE
# T4 sequence (P54290 945-1091 partner limits assumed, other chains not shown): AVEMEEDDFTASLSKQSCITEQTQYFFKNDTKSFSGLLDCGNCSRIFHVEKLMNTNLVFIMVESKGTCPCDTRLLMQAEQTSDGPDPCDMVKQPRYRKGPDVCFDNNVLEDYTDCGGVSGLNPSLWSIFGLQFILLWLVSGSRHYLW
# [2] = human receptor, LM(tk-) cell lysates, mean
"Ki (α2A receptor; human α2A receptor, LM(tk-) cells)","Ki (α2C receptor; human α2C receptor, LM(tk-) cells)",Ki (L-type calcium channel; L-type calcium channel),SMILES,"Ki ([1]; cloned human receptor, mean)",Ki (α2A receptor; [2]),Ki (α2C receptor; [2]),Ki (L-type calcium channel; mean),melting point,pKi (α2A receptor),pKi (α2C receptor),pKi (L-type calcium channel),Ki ([1]; cloned human α1C receptor),PKi alpha-2 2a (α2A receptor),PKi alpha-2 2c (α2C receptor)
–,–,–,"CCC1=C(C(=O)NC)C(c2ccc([N+](=O)[O-])cc2)C(C(=O)NCCCN2CCC(C(=O)OC)(c3ccccc3)CC2)=C(COCCN)N1 (stereo not shown) [Example 229, 2-((2-Aminoethyl)oxy)methyl-6-ethyl-1,4-dihydro-3-(N-(3-(4-methoxycarbonyl-4-phenylpiperidin-1-yl)propyl))carbo xamido-5-N-methylcarboxamido-4-(4-nitro)phenylpyridine]",7.08 nM,3020 nM,891 nM,100000 nM,95 °C (dec.),–,–,–,–,–,–
–,–,–,"CCNC(=O)C1=C(CC)NC(COCCN)=C(C(=O)NCCCN2CCC(C(=O)OC)(c3ccccc3)CC2)C1c1ccc([N+](=O)[O-])cc1 (stereo not shown) [Example 233, 2-((2-Aminoethyl)oxy)methyl-6-ethyl-5-N-ethylcarboxamido-1,4-dihydro-3-(N-(3-(4-methoxycarbonyl-4-phenylpiperidin-1-yl)propyl))carboxamido-4-(4-nitro)phenylpyridine]",2.14 nM,–,–,–,112 °C (dec.),5.32,5.78,6.59,–,–,–
–,–,–,"CCC1=C(C(=O)OC)C(c2ccc([N+](=O)[O-])cc2)C(C(=O)NCCCN2CCC(C(=O)OC)(c3ccccc3)CC2)=C(COCCN)N1 (stereo not shown) [Example 235, 2-((2-Aminoethyl)oxy)methyl-6-ethyl-1,4-dihydro-5-methoxycarbonyl-3-(N-(3-(4-methoxycarbonyl-4-phenylpiperidin-1-yl)propyl))carboxamido-4-(4-nitro)phenylpyridine]",2.09 nM,–,–,–,140 °C (dec.),5.62,5.99,3.78,–,–,–
–,–,–,"COC(=O)C1=C(C)NC(C)=C(C(=O)NCCCN2CCC(c3ccccc3)(c3ccccc3)CC2)C1c1cccc([N+](=O)[O-])c1 (stereo not shown) [Example 249, 1,4-Dihydro-3-methoxycarbonyl-2,6-dimethyl-4-(3-nitrophenyl)-5-(N-(3-(4,4-diphenylpiperidin-1-yl)propyl)carboxamido)-pyridine]",–,–,–,–,192 to 193 °C,–,–,7.51,0.389 nM,5.81,6.25
123 nM,36.3 nM,13200 nM,COC(=O)C1=C(C)NC(C)=C(C(=O)NCCCN2CCC(c3ccccc3)CC2)C1c1ccc2c(c1)OCO2 (stereo not shown) [Example 250],–,–,–,–,161 to 165 °C,–,–,–,1.1 nM,–,–
